Test results from patent US7449492B2, “Therapeutic agents—I” (priority 2000, dated 2008).

Assays:
PKCα = molecular target: T1, PKCα (Homo sapiens, UniProt P17252); type: cell-based; conditions: HeLa, one hour; for PKCα translocation from the cytoplasm to the plasma membrane: TPA 100 ng/mL, bryostatin-1 5 pg/mL, PEP003 2.25 μg/mL (5 μM), PEP005 (1.5 μM)
T1 construct: host or cells: HeLa cells
Experimental: (§1) Five EGFP-PKC isoforms (Clontech) were available for this experiment, enabling the screening of the three predominant PKC families (i.e. classical, novel and a typical PKCs). The members of the various PKC families are α, β, and γ (classical), θ (novel) and ζ (atypical).
(§2) HeLa cells were plated out in a 24-well plate containing coverslips and transfected with PKC isoforms fused to EGFP, using a commercially available effectine-transfection kit (QIAGEN, Pty. Ltd.). Cells were exposed to the transfection reagents for 16-24 hr. Subsequently, transfected cells were treated for one hour with TPA (100 ng/mL), bryostatin-1 (5 pg/mL), PEP003 (2.25 μg/mL; 5 μM) or PEP005 ([…]) 1.5 μM). Following treatment, cells were fixed on coverslips and mounted on glass slides. The slides were subsequently examined visually by fluorescence microscopy, photographed, and over 150 cells were counted/treatment/PKC isoform. Counted cells were classified according to the localisation of the PKC-EGFP fluorescence as either cytoplasmic or plasma membrane using ImagePro™ 4.1 (FIG. 5). […] The number of these cells was also counted.

PKCβ = molecular target: T2, PKCβ (Homo sapiens, UniProt P05771); experiment: EGFP-PKC isoform translocation in HeLa cells; type: cell-based; conditions: one hour; for PKCβ translocation from the cytoplasm to the plasma membrane: TPA 100 ng/mL, bryostatin-1 5 pg/mL, PEP003 2.25 μg/mL (5 μM), PEP005 670 μg/mL (1.5 μM)
T2 construct: host or cells: HeLa cells
T2 sequence (P05771 whole entry, species assumed, canonical isoform): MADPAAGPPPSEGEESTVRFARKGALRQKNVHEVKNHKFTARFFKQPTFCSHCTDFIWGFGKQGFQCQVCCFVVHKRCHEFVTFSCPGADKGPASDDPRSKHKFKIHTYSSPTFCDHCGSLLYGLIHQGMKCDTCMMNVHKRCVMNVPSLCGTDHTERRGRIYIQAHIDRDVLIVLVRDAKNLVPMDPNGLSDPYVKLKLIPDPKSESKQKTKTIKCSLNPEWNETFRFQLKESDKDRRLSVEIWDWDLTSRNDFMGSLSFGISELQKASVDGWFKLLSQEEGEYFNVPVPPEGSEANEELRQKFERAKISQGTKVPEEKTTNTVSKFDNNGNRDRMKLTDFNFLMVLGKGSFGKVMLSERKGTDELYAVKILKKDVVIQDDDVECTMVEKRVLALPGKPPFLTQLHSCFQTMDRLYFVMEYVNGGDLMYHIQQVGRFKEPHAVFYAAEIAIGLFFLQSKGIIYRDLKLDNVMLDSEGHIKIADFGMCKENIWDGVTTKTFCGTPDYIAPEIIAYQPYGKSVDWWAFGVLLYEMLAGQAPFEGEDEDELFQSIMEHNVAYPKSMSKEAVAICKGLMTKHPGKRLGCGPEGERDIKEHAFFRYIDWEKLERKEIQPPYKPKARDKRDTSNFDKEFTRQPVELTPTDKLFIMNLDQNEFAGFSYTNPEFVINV
Experimental: as §1
as §2, with “counted. Results are presented as an average and standard deviation of percentages of cells (Table 1).” for “counted.”

PKCζ = molecular target: T3, PKCζ (Homo sapiens, UniProt Q05513); experiment: EGFP-PKC isoform translocation in HeLa cells; type: cell-based; conditions: one hour, TPA 100 ng/mL, bryostatin-1 5 pg/mL, PEP003 2.25 μg/mL (5 μM), PEP005 670 μg/mL (1.5 μM)
T3 construct: host or cells: HeLa cells
T3 sequence (Q05513 1-592): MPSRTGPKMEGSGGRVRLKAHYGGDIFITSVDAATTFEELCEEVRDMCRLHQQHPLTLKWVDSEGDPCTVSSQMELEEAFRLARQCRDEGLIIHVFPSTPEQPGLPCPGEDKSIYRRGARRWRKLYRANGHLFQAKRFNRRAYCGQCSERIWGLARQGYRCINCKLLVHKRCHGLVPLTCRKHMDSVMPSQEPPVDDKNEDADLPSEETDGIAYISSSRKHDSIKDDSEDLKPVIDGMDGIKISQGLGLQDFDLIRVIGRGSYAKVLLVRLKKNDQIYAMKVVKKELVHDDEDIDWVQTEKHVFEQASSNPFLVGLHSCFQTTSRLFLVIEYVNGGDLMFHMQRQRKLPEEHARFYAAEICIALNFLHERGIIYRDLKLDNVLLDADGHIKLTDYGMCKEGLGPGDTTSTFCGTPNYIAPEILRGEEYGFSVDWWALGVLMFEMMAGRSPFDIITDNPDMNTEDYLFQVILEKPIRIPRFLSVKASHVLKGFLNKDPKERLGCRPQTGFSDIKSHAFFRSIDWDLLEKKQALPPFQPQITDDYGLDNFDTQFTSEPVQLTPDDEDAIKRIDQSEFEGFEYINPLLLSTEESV
Experimental: as §1
as §2, with “counted. Results are presented as an average and standard deviation of percentages of cells (Table 1).” for “counted.”

PKCθ = molecular target: T4, PKCθ (Homo sapiens, UniProt Q04759); experiment: EGFP-PKC isoform translocation in HeLa cells; type: cell-based; conditions: one hour, TPA 100 ng/mL, bryostatin-1 5 pg/mL, PEP003 2.25 μg/mL (5 μM)
T4 construct: host or cells: HeLa cells
T4 sequence (Q04759 whole entry, canonical isoform): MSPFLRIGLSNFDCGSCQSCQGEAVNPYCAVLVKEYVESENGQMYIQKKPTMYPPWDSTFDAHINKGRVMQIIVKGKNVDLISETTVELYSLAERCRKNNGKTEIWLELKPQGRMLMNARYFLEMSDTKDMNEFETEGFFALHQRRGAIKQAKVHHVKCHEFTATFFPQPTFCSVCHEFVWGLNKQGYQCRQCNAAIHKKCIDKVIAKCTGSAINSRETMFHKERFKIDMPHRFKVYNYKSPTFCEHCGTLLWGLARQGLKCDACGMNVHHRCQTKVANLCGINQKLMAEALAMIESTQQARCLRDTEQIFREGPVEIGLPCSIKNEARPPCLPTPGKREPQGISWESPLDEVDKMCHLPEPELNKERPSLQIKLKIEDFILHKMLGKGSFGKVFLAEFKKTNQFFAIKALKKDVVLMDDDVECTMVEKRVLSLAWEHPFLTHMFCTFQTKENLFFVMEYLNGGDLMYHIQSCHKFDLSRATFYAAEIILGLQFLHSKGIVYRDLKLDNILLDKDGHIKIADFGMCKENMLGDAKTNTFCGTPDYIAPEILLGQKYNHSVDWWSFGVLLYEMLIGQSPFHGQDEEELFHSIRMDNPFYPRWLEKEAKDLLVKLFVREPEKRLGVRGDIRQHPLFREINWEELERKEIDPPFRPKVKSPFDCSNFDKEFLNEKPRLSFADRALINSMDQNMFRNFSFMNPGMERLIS
Experimental: as §1
as §2, with “counted. Results are presented as an average and standard deviation of percentages of cells (Table 1).” for “counted.”

rat brain PKC = experiment: PKC kinase activity, PepTag Non-Radioactive Protein Kinase Kit; type: biochemical; conditions: FIG. 1; TPA various dilutions (lanes 3, 4 and 5); ether extract at final dilution of 1 in 5 relative to the sap; crude sap and aqueous layer diluted 1/25
Experimental: The kinase activity of rat brain PKC (Promega) was determined using the Peptag™ Non-Radioactive Protein Kinase Kit (Promega). Using agarose gel electrophoresis the technique visualises the opposing electrostatic charge of a fluorescently labeled peptide ([sequence]) compared to the phosphorylated version of the same peptide.
The reaction mixture was separated by gel electrophoresis, showing migration of the unreacted substrate (a) to the anode (top), and the product (b), which is more negatively charged because of phosphorylation by PKC, moving towards the cathode (bottom).

PKCγ = molecular target: T5, PKCγ (Homo sapiens, UniProt P05129); experiment: EGFP-PKC isoform translocation in HeLa cells; type: cell-based; conditions: one hour; for PKCγ translocation from the cytoplasm to the plasma membrane: TPA 100 ng/mL, bryostatin-1 5 pg/mL, PEP003 2.25 μg/mL (5 μM), PEP005 670 μg/mL (1.5 μM)
T5 construct: host or cells: HeLa cells
Experimental: as §1
as §2, with “counted. Results are presented as an average and standard deviation of percentages of cells (Table 1).” for “counted.”

[1] = test system: latently HIV-1 infected cell line (U1); experiment: Activation of latent HIV from U1 cells (p24 ELISA); type: cell-based, HIV-1 LAI strain; conditions: 20 hr culture
Excerpt: A latently HIV-1 infected cell line (U1), derived from the promonocytic cell line U937 after infection with HIV-1 LAI strain, was used in these experiments. In the absence of activation, no or little virus (measured as p24 production) is produced by the U1 cell line. Phorbol esters are known to activate virus production from these cells (Tobiume et al., 1998) and so TPA/PMA was used as a positive control in these experiments.
Supernatants were collected and viral replication monitored by determination of the amounts of HIV p24 gag protein in the culture supernatants by ELISA, using a NEN Life Science HIV-1 p24 ELISA kit. p24 values were calculated from OD values using a standard curve.

[2] = test system: peripheral blood mononuclear cells (PBMCs); experiment: Phagocytosis with fluorescent beads; type: cell-based; conditions: whole heparinized blood, 30 min at 37° C.
Experimental: Phagocytosis by peripheral blood mononuclear cells (PBMCs) was assayed (Steinkamp et al., 1982) using 1 μm Fluoresbrite™ yellow-green fluorescent latex spheres (Polysciences, Inc., Warrington, Pa.). A sample of whole, heparinized blood was treated with drug and 5×10E7 fluorescent latex beads in 10 μL of PBS added per mL of suspension. Cells were incubated and maintained in suspension for 30 min by means of a shaker platform at 37° C. The stimulated and non-stimulated samples were then lysed to isolate PBMCs. The PBMCs were run on the flow cytometer measuring FITC (excitation at 488 nm, emission at 525±20 nm), gated for fluorescence (phagocytosed spheres) and light scatter (cell size).

[3] = test system: Burkitt's lymphoma cell lines (MutuI and BL74); experiment: EBV activation, VCA on western blots, Burkitt's lymphoma cell lines; type: cell-based
Experimental: Initially the effect of PEP003 and PEP004 was tested on the B95-8 cell line (an EBV positive marmoset cell line that is used worldwide as one of the best EBV producers). This cell line was treated with each of these compounds (at different concentrations) for 3 days and 7 days, respectively, and activation of EBV virus production was measured by the appearance of a viral capsid antigen (VCA) on western blots. Also, as a comparison, EBV was activated in this cell line with TPA.
To ensure that equal amounts of each sample were analyzed, the gels were stained with Coomassie blue and the loadings were adjusted to make them equal. […] Next the PEP003 and PEP004 were assayed on two Burkitt's lymphoma cell lines and an LCL. This time only concentrations of 10^−5 and 10^−7 were used.

latent HIV in monocytes = conditions: Tobiume et al., 1998; cited from earlier work
CMV promoter = conditions: Christenson et al., 1999; cited from earlier work
[4] = test system: phorbol ester binding site of PKC; experiment: [3H]-phorbol dibutyrate competition assay on rat brain homogenate; conditions: co-incubation
Experimental: A competition assay was performed to determine whether the diterpene esters of the instant invention bind to the phorbol ester binding site of PKC. […] This binding was not blocked by co-incubation with bisindolylmaleimide.

[5] = test system: Peripheral blood mononuclear cells (PBMC); experiment: Respiratory burst, H2O2 production by DCFH-DA flow cytometry; type: cell-based; conditions: 10 μg/mL or 1 μg/mL, added at the same time as the test compounds
Experimental: Experiments were also carried out using 2′,7′-dichlorofluorescein diacetate (DCFH-DA) to measure the production of H2O2.(J P Robinson, Oxidative burst methods, in Handbook of Flow Cytometry Methods, Wiley-Liss Inc, pp 147-149, 1993). H2O2 oxidizes the non-fluorescent probe (DCFH-DA) to a fluorescent probe that can then be detected by a flow cytometer. Peripheral blood mononuclear cells (PBMC) were extracted from a donor blood sample by lysis of heparinized blood and used in a suspension of 1×10^6/mL of phosphate buffer, pH 7.3. The cells were then incubated, with DCFH-DA (1 μL/mL of 20 mM stock) for 15 minutes to allow it to be taken up and trapped by hydrolysis with cellular esterases. The cells were then stimulated by test compounds for 15 min at 37° C. Controls included in the experiment were unloaded control (cells with no DCFH-DA) and loaded control (cells with DCFH-DA, but no stimulation). These were used to monitor the non-specific oxidation of unstimulated cells. The cells were then analyzed on the flow cytometer (excitation at 488 nm, emission at 525±20 nm), gating each sample for individual cell populations—granulocytes, monocytes and lymphocytes (Table 3).

adenovirus 5 = experiment: Adenovirus replication in human melanoma cells (immunohistochemical detection); type: cell-based; conditions: 295 ng/mL; 2 days
Excerpt: Human melanoma cells were infected with ten-fold dilutions of adenovirus 5 in culture, treated with dilutions of PEP005, PEP006, PEP008 and PEP010 and adenovirus replication determined 2 days later by immunhistochemical detection of virus-replicating cells.

Molecule | PKCα translocation from the cytoplasm to the plasma membrane (PKCα) | number of PKCβ transfected cells with Golgi-like fluorescence (PKCβ) | PKCβ translocation from the cytoplasm to the plasma membrane (PKCβ) | PKCζ translocation (PKCζ) | PKCθ translocation (PKCθ) | activation of PKC (rat brain PKC) | number of PKCα transfected cells displaying Golgi-like fluorescence (PKCα) | number of PKCγ transfected cells displaying Golgi-like fluorescence (PKCγ) | PKCγ translocation from the cytoplasm to the plasma membrane (PKCγ) | phagocytosis of fluorescent latex spheres in PBMCs [2] | also measured
CCC/C=C/C=C/C(=O)O[C@H]1/C(=C/C(=O)OC)C[C@H]2C[C@H]([C@@H](C)O)OC(=O)C[C@H](O)C[C@@H]3C[C@H](OC(C)=O)C(C)(C)[C@](O)(C[C@@H]4C/C(=C/C(=O)OC)C[C@H](/C=C/C(C)(C)[C@]1(O)O2)O4)O3 [bryostatin-1] | not with bryostatin-1 | decreases the number of cells with PKCβ concentrated in the Golgi | not with bryostatin-1 | fail to induce translocation of PKCζ | translocated |  |  |  |  |  | 
CCCCCCCCCCCCCC(=O)O[C@@H]1[C@@H](C)[C@@]2(O)[C@@H](C=C(CO)C[C@]3(O)C(=O)C(C)=C[C@@H]23)[C@@H]2C(C)(C)[C@]12OC(C)=O [TPA] | translocated from the cytoplasm to the plasma membrane | increase in Golgi-like fluorescence | translocated from the cytoplasm to the plasma membrane | fail to induce translocation of PKCζ | translocated | showed activation of PKC | increase in the number of cells displaying Golgi-like fluorescence | increase in the number of cells displaying Golgi-like fluorescence | translocated from the cytoplasm to the plasma membrane | stimulate phagocytosis | activation of HIV from U1 cells (p24 production) [1]: activated HIV from U1 cells; induction of VCA in MutuI cells [3]: did not; activation of latent HIV in monocytes (latent HIV in monocytes): activate latent HIV in monocytes; increase of CMV promoter transcriptional activity (CMV promoter): increase this activity
bisindolylmaleimide |  |  |  |  |  |  |  |  |  |  | binds to the phorbol ester binding site of PKC [4]: does not; effect of PKC inhibitor on the respiratory burst seen with TPA and PEP003 [5]: blocked the respiratory burst
C/C=C(/C)C(=O)O[C@H]1C(C)=C[C@]23C(=O)[C@H](C=C(C)[C@@H](O)[C@]12O)[C@H]1[C@@H](C[C@H]3C)C1(C)C [PEP006, 20-deoxy-ingenol-3-angelate] |  |  |  |  |  |  |  |  |  | stimulate phagocytosis | increase of adenovirus replication (number of stained cells) (adenovirus 5): 256%
C/C=C(/C)C(=O)O[C@H]1C(C)=C[C@]23C(=O)[C@@H](C=C(CO)[C@@H](O)[C@]12O)[C@H]1[C@@H](C[C@H]3C)C1(C)C [PEP005, Ingenol-3-angelate] | translocated from the cytoplasm to the plasma membrane | decreases the number of cells with PKCβ concentrated in the Golgi | translocated from the cytoplasm to the plasma membrane | fail to induce translocation of PKCζ | does not induce any change in the isoenzymes localization |  | increase in the number of cells displaying Golgi-like fluorescence | increase in the number of cells displaying Golgi-like fluorescence | translocated from the cytoplasm to the plasma membrane | stimulate phagocytosis | 
phosphatidyl serine |  |  |  |  |  | strong activation |  |  |  |  | 
